# Literature values as cited in US6900339B2, “Bryostatin composition and bryostatin acquisition methodologies” (The University of North Carolina at Chapel Hill, priority 2002, dated 2005).
# Test system: leukemia
# Settings: background statement
smiles,measurement,value
CCC/C=C/C=C/C(=O)O[C@H]1/C(=C/C(=O)OC)C[C@H]2C[C@H]([C@@H](C)O)OC(=O)C[C@H](O)C[C@@H]3C[C@H](OC(C)=O)C(C)(C)[C@](O)(C[C@@H]4C/C(=C/C(=O)OC)C[C@H](/C=C/C(C)(C)[C@]1(O)O2)O4)O3 [bryostatin 1],effectiveness against leukemia,particularly effective
